Reference: US7049443B2, “Amide-containing compound having improved solubility and method of improving the solubility of an amide-containing compound” (Pharmacia & Upjohn Company, priority 2001, dated 2006)
Where “and” joins values, the source holds several entries; their conditions need not be identical. Equal entries are not always repeated.

Structure (SMILES) | melting point
CONC(=O)[C@H]1CN(c2ccc(N3CCOCC3)c(F)c2)C(=O)O1 [Example 439, (5R)-(−)-3-[3-Fluoro-4-(4-morpholinyl)phenyl]-N-methoxy-2-oxo-5-oxazolidinecarboxamide] | 206 to 208 °C (dec.)
NC(=O)[C@H]1CN(c2cc(F)c(N3CCS(=O)(=O)CC3)c(F)c2)C(=O)O1 [Example 449, (5R)-(−)-3-[4-(Thiomorpholin-4-yl)-3,5-difluorophenyl]-2-oxo-5-oxazolidinecarboxamide S,S-dioxide] | 245 to 248 °C (dec.)
NC(=O)[C@H]1CN(c2ccc(N3CCS(=O)(=O)CC3)c(F)c2)C(=O)O1 [Example 453, (5R)-(−)-3-[3-Fluoro-4-(thiomorpholin-4-yl)phenyl]-2-oxo-5-oxazolidinecarboxamide S,S-dioxide] | 245 to 247 °C (dec.)
NC(=O)[C@H]1CN(c2ccc(C3=CCOCC3)c(F)c2)C(=O)O1 [Example 443, (5R)-(−)-3-[4-(3,6-Dihydro-2H-pyran-4-yl)-3-fluorophenyl]-2-oxo-5-oxazolidinecarboxamide] | 164 to 169 °C
CNC(=O)[C@H]1CN(c2ccc(N3CCOCC3)c(F)c2)C(=O)O1 [Example 436, (5R)-(−)-3-[3-Fluoro-4-(4-morpholinyl)phenyl]-N-methyl-2-oxo-5-oxazolidinecarboxamide] | 182 to 183 °C (dec.)
NC(=O)[C@H]1CN(c2cc(F)c(N3CCOCC3)c(F)c2)C(=O)O1 [Example 451, (5R)-(−)-3-[3,5-Difluoro-4-(4-morpholinyl)phenyl]-2-oxo-5-oxazolidinecarboxamide] | 181 to 183 °C
NC(=O)[C@H]1CN(c2ccc(N3CCOCC3)c(F)c2)C(=O)O1 [Example 435, (5R)-(−)-3-[3-Fluoro-4-(4-morpholinyl)phenyl]-2-oxo-5-oxazolidinecarboxamide] | 185 to 187 °C (dec.)
NC(=O)[C@H]1CN(c2ccc(N3CCS(=O)(=O)CC3)cc2)C(=O)O1 [Example 452, (5R)-(−)-3-[4-(Thiomorpholin-4-yl)phenyl]-2-oxo-5-oxazolidinecarboxamide S,S-dioxide] | 226 to 228 °C
NC(=O)[C@H]1CN(c2cc(F)c(N3CC[S+]([O-])CC3)c(F)c2)C(=O)O1 [Example 455, (5R)-(−)-3-[3,5-Difluoro-4-(thiomorpholin-4-yl)phenyl]-2-oxo-5-oxazolidinecarboxamide S-oxide] | 273 to 276 °C (dec.)
NC(=O)[C@H]1CN(c2ccc([C@H]3CC[S@@+]([O-])CC3)c(F)c2)C(=O)O1 (racemic) [Example 456, (SR)-3-[3-Fluoro-4-(cis-tetrahydro-1-oxido-2H-thiopyran-4-yl)phenyl]-2-oxo-5-oxazolidinecarboxamide] | 279 to 281 °C (dec.)
NC(=O)[C@H]1CN(c2ccc([C@H]3CC[S@@+]([O-])CC3)cc2)C(=O)O1 [Example 459, (5R)-3-[4-(cis-tetrahydro-1-oxido-2H-thiopyran-4-yl)phenyl]-2-oxo-S-oxazolidinecarboxamide] | 269 to 273 °C (dec.)
NC(=O)[C@H]1CN(c2ccc(C3CCS(=O)(=O)CC3)c(F)c2)C(=O)O1 [Example 447, (5R)-(−)-3-[4-(Tetrahydro-2H-thiopyran-4-yl)-3-fluorophenyl]-2-oxo-5-oxazolidinecarboxamide S,S-dioxide] | 231 to 234 °C (dec.) and 229 to 231 °C (dec.)
NC(=O)[C@H]1CN(c2ccc(N3CC[S+]([O-])CC3)c(F)c2)C(=O)O1 [Example 454, (5R)-(−)-3-[3-Fluoro-4-(thiomorpholin-4-yl)phenyl]-2-oxo-5-oxazolidinecarboxamide S-oxide] | 264 to 266 °C (dec.)
NC(=O)[C@H]1CN(c2ccc(C3CCOCC3)c(F)c2)C(=O)O1 [Example 444, (5R)-(−)-3-[4-(Tetrahydro-2H-pyran-4-yl)-3-fluorophenyl]-2-oxo-5-oxazolidinecarboxamide] | 153 to 156 °C
NC(=O)[C@H]1CN(c2ccc(N3CCN(C(=O)CO)CC3)c(F)c2)C(=O)O1 [Example 448, (5R)-(−)-3-[3-Fluoro-4-[4-(hydroxyacetyl)-1-piperazinyl]phenyl]-2-oxo-5-oxazolidinecarboxamide] | 232 to 235 °C (dec.)
NC(=O)[C@H]1CN(c2ccc(-c3ccncc3)c(F)c2)C(=O)O1 [Example 442, (5R)-(−)-3-[4-(4-Pyridyl)-3-fluorophenyl]-2-oxo-5-oxazolidinecarboxamide] | 256 to 259 °C (dec.)
NC(=O)[C@H]1CN(c2ccc(C3CCS(=O)(=O)CC3)cc2)C(=O)O1 [Example 458, (5R)-(−)-3-[4-(tetrahydro-2H-thiopyran-4-yl)phenyl]-2-oxo-5-oxazolidinecarboxamide S,S-dioxide] | 211 to 212 °C
C=CCNC(=O)[C@H]1CN(c2ccc(N3CCOCC3)c(F)c2)C(=O)O1 [Example 437, (5R)-(−)-3-[3-Fluoro-4-(4-morpholinyl)phenyl]-N-allyl-2-oxo-5-oxazolidinecarboxamide] | 167 to 169 °C
NC(=O)[C@H]1CN(c2ccc([C@H]3CC[S@+]([O-])CC3)cc2)C(=O)O1 (racemic) [Example 460, (SR)-3-[4-(trans-tetrahydro-1-oxido-2H-thiopyran-4-yl)phenyl]-2-oxo-5-oxazolidinecarboxamide] | 174 to 175 °C
O=C(NO)[C@H]1CN(c2ccc(N3CCOCC3)c(F)c2)C(=O)O1 [Example 440, (5R)-(−)-3-[3-Fluoro-4-(4-morpholinyl)phenyl]-N-hydroxy-2-oxo-5-oxazolidinecarboxamide] | 141 to 143 °C
NC(=O)[C@H]1CN(c2ccc(-c3cccnc3)c(F)c2)C(=O)O1 [Example 441, (5R)-(−)-3-[4-(3-Pyridyl)-3-fluorophenyl]-2-oxo-5-oxazolidinecarboxamide] | 240 to 242 °C (dec.)
CCCNC(=O)[C@H]1CN(c2ccc(N3CCOCC3)c(F)c2)C(=O)O1 [Example 438, (5R)-(−)-3-[3-Fluoro-4-(4-morpholinyl)phenyl]-N-propyl-2-oxo-5-oxazolidinecarboxamide] | 165 to 167 °C
NC(=O)[C@H]1CN(c2ccc(C3=CCS(=O)(=O)CC3)c(F)c2)C(=O)O1 [Example 446, (5R)-(−)-3-[4-(3,6-Dihydro-2H-thiopyran-4-yl)-3-fluorophenyl]-2-oxo-5-oxazolidinecarboxamide S,S-dioxide] | 206 to 208 °C
NC(=O)[C@H]1CN(c2ccc([C@H]3CC[S@+]([O-])CC3)c(F)c2)C(=O)O1 [Example 457, (5R)-3-[3-Fluoro-4-(trans-tetrahydro-1-oxido-2H-thiopyran-4-yl)phenyl]-2-oxo-5-oxazolidinecarboxamide] | 201 to 203 °C
NC(=O)[C@H]1CN(c2ccc(C3=CC[S+]([O-])CC3)c(F)c2)C(=O)O1 (stereo partly drawn) [Example 445, (5R)-3-[4-(3,6-Dihydro-2H-thiopyran-4-yl)-3-fluorophenyl]-2-oxo-5-oxazolidinecarboxamide S-oxide] | 182 to 184 °C (dec.)
